Source: US20110009379A1, “INDOLINONE COMPOUND” (ASTELLAS PHARMA INC., priority 2008, published 2011)

System: gastric emptying of rats
Assay: Activity to gastric emptying of TRPA1 agonist (phenol red, rats)
Type: in vivo
Conditions: Rattus norvegicus; male wistar rats, oral administration, versus control animals; read-out: ED50 (amount which suppresses 50% of gastric emptying)
Text: When EC cell is stimulated by content of a gastrointestinal tract, 5-HT is secreted. The secreted 5-HT promotes the secretion or motility through a 5-HT receptor present in intestinal nerve plexus or gastrointestinal smooth muscle. The secreted 5-HT is instantly taken into a cell by its specific transporter, and is metabolized by […]. Thus, while it is considerably difficult to directly measure the secreted 5-HT concentration, it has been known that gastric emptying is delayed as a physiological activity through 5-HT in rodents. In order to verify in vivo activity through 5-HT of the compound to be tested, activity to gastric emptying of rats by various TRPA1 agonists was studied.
In the experiment, male wistar rats (body weight 290 to 360 g) were used. The animals were purchased from Japan SLC (Shizuoka). The animals were allowed to drink water freely under a constitutive environment.
5 minutes after the medicine was orally administered, 0.05% phenol red solution (1.5 mL) was orally administered. After 15 minutes, rats were put painlessly to death by cervical vertebral dislocation, their stomachs were exenterated, and phenol red was eluted with 0.1M aqueous NaOH solution (5 mL) from the exenterated stomachs. 20% aqueous trichloroacetic acid solution (0.1 mL) was added to the NaOH solution (0.5 mL), followed by stirring and centrifugation at 15,000 rpm, at 4° C., for 10 minutes. 0.5M aqueous NaOH solution (0.2 mL) was added to the supernatant (0.05 mL), followed by stirring, and absorbance at 560 nm was measured using an absorption spectrometer (spectrometer spectramax M2; Molecular Devices, CA, USA).
A gastric emptying was calculated by the following calculating formula.
Gastric emptying (%)=100−(A/B)×100
A: amount of phenol red remaining in stomach
B: amount of phenol red remaining in stomach just after administering phenol red
ED50 values (amount of the compound to be tested which suppresses 50% of gastric emptying, with respect to the control animals without administering the compound to be tested) of some of the compounds of the formula (I) are shown in Table 2. In this connection, comparative compound 1 and comparative compound 2 are (3E)-1-methyl-3-(2-oxopropyridene)-1,3-dihydro-2H-indol-2-one, and (3E)-3-(2-oxopropyridene)-1-prop-2-in-1-yl-1,3-dihydro-2H-indol-2-one described in Non Patent Document 4 above, and has the following chemical structures, respectively.

Compound `O=C(O)/C=C1/C(=O)N(CC2CCCC2)c2c(F)cccc21` [Example 28, (2E)-[1-(cyclopentylmethyl)-7-fluoro-2-oxo-1,2-dihydro-3H-indol-3-ylidene]acetic acid] has an ED50 of 0.44 mg/kg.
